{"source": "patent US11241434B2", "about": "“Compositions and methods for improving cognition in a subject” (Yale University, priority 2013, dated 2022)", "key": {"[1]": {"tested_on": "mice with closed head injury (CHI) and chronic variable stress (CVS)", "assay": "Behavioral tests after closed head injury plus chronic variable stress", "type": "in vivo, mouse", "protocol": "FIGS. 15A-15H illustrate the finding that Fyn inhibition rescues memory deficits after repeated mild head injury combined with chronic stress. FIG. 15A: Timeline for mice undergoing 14 days of chronic variable stress (CVS) and closed head injury (CHI) or Sham CVS & CHI paradigm. On Day 15, Rotarod testing was done to assess motor impairment in a subset of mice. The mice were treated with either AZD0530 (5 mg/kg/d) or Vehicle treatment for 10 weeks starting 24 hours after the final day of injury. This was followed by one week of behavioral testing, including novel object recognition test and Morris water maze prior to perfusion and immunohistochemistry. FIG. 15B: Rotarod prior to the treatment using the Sham and Injured groups. One-way ANOVA, p>0.05. Data are mean±SEM. n=8-9/group, each dot is one mouse. FIG. 15C: Novel object recognition test using the Sham mice and Injured mice with and without AZD0530 treatment. Two-way ANOVA, F(2,64)=5.258 p=0.007 for interaction of group with object, Sidak's multiple comparison test: Novel vs Familiar for Sham Vehicle (SV): p<0.0001, for Injured Vehicle (IV): p=0.99, for Injured AZD (IA): p=0.0002. Data are mean±SEM. n=9-13/group, each dot represents one mouse. FIG. 15D: Latency to reach a hidden platform in Morris water maze across 6 blocks of 4 swims for Sham mice and Injured mice with and without AZD0530 treatment. Data are mean±SEM. n=14-17/group. Two-way ANOVA for time and group with main effect of group, p<0.0001, F (2, 41)=47.24. Tukey's multiple comparison test: SV vs IV: p<0.0001, IV vs IA: p=0.98, SV vs IA: p<0.0001. FIG. 15E: Morris water maze probe trial for Sham or Injured mice treated with Vehicle or AZD0530, showing time in the Target quadrant. One way ANOVA: F(2,39)=9.410, p=0.0005, Tukey's multiple comparison test: SV vs IV: p=0.0003, IV vs IA: p=0.12, SV vs IA: p=0.05. Data are mean±SEM. n=13-15/group, each dot is one mouse. Dashed line indicates random chance performance. FIG. 15F: A second group of mice underwent a similar 14 days of chronic variable stress (CVS) plus closed head injury (CHI) or Sham CVS & CHI paradigm, and then starting on Day 121 were treated with either AZD0530 (5 mg/kg/d) or Vehicle for 10 weeks. The mice subsequently underwent Morris water maze testing. […] Data are mean±SEM. n=8-26/group. […] Data are mean±SEM. n=8-26/group, each dot is one mouse.\nThe injury model was based on the combination of Closed Head Injury (CHI) and Chronic Variable Stress (CVS). The Sham mice received Sham-CHI and Sham-CVS treatments.\nClosed Head Injury (CHI) is a well-established mice injury model (Sangobowale et al, 2018, Neurotrauma 35:907-917). Mice were weighed prior to receiving Sham-CHI or CHI. […] Mice were placed on a heating pad to maintain body temperature while receiving the impact, as well as during the post-injury recovery period. The mice underwent a total of 14 consecutive days of CHI injury, once per day. The site of injury alternated between right and left hemispheres on consecutive days. Each CHI injury was performed 1-3 hours after that day's CVS exposure. Injury severity was assessed using time interval between injury and recovery of the righting reflex (Grin'kina et al., 2013, PLoS One 8, e53775). The mice were placed on a heat pad both while receiving the impact, as well as the period following the impact to preserve their core body temperature. Mice were returned to vivarium after restoration of their righting reflex and this was typically less than 5 minutes. […]"}, "[2]": {"tested_on": "subjects with mild to moderate AD", "assay": "Phase Ib multiple ascending dose study, safety and tolerability", "type": "in vivo", "conditions": "human, 50, 100 or 125 mg PO daily", "description": "Subjects were enrolled in three cohorts of 8 subjects each."}, "solid tumors": {"tested_on": "solid tumors", "conditions": "single agent, specific oncological indications; cited from earlier work"}, "[3]": {"conditions": "Injured mice, 5 mg/kg/day from Day 15, 10 weeks"}}}
{"smiles": "CN1CCN(CCOc2cc(OC3CCOCC3)c3c(Nc4c(Cl)ccc5c4OCO5)ncnc3c2)CC1", "note": "[saracatinib, N-(5-chloro-benzo[d][1,3]dioxol-4-yl)-7-(2-(4-methylpiperazin-1-yl)ethoxy)-5-(tetrahydro-2H-pyran-4-yloxy)quinazolin-4-amine]", "values": [{"measurement": "Morris water maze learning trials", "setting": "[1]; [3]", "result": "severely impaired learning relative to Sham Vehicle"}, {"measurement": "Morris water maze probe trial memory for platform location", "setting": "[1]; [3]", "result": "not statistically distinguishable from Sham Vehicle"}, {"measurement": "novel object recognition", "setting": "[1]; Injured mice, 5 mg/kg/day oral gavage from Day 15 (24 hours after final injury), 10 weeks", "result": "recognized familiar objects as successfully as Sham Vehicle mice"}, {"measurement": "Morris water maze probe trial memory", "setting": "[1]; Injured mice, treatment from Day 121 (107 days after final injury), 10 weeks", "result": "no evidence of improved memory"}, {"measurement": "Morris water maze latency in learning trials, Injured AZD vs Injured Vehicle", "setting": "[1]; treatment from Day 121, 10 weeks", "result": "not significantly different from one another"}, {"measurement": "hematological changes", "setting": "[2]", "result": "no significant hematological changes"}, {"measurement": "serious adverse events, laboratory abnormalities, early terminations", "setting": "[2]", "result": "no apparent study-related serious adverse events (SAEs), significant laboratory abnormalities, or early terminations"}, {"measurement": "benefit in Phase II studies", "setting": "solid tumors", "result": "limited benefit"}]}
